From US9877980B2, “Method and composition for treatment or prevention of type 2 diabetes and hyperlipidemia” (Chun-Ching Shih, priority 2016, dated 2018)
Marks after values point to notes of the source that are not given here.

Key:
[1] = test system: C57BL/6J mice on high-fat diet (HFD); test: Absolute tissue weight, body weight, weight gain and food intake in HFD mice; type: in vivo; conditions: 4 weeks
Protocol: (§1) The following experiment was performed and approved by the guidelines of the Institutional Animal Care and Use Committee of Central Taiwan University of Science and Technology. The 4-week old male C57BL/6J mice (total amount n=63) were purchased from the National Laboratory Animal Breeding and Research Center (Taipei, Taiwan). After acclimatization for one week, all of the mice were divided randomly into the control (CON) group and the high-fat diet (HFD) group. For the following 12 weeks, the CON group (n=9) was kept on a low-fat diet (Diet 12450B, Research Diets, Inc., New Brunswick, N.J., USA), while the HFD group (n=54) was exposed to a high-fat diet (Diet 12451, Research Diets, New Brunswick, N.J., USA). The low-fat diet was composed of protein 20%, carbohydrate 70% and fat 10%, whereas the high-fat diet was composed of protein 20%, carbohydrate 35%, and fat 45% (of total energy, % kcal). After HFD exposure for 8 weeks, the HFD group was further randomly subdivided into 6 groups (n=9 per group) to receive different treatments by oral gavage once daily for four weeks and on HFD. […] The HF+B1, HF+B2, and […] are collectively termed BB-treated HFD groups in the following examples. The CON mice were administered vehicle. After dosing for 4 weeks, the mice were given no food at night and sacrificed after 12 h of fasting on the next day. All of the individual tissues were collected and weighed, and portions were instantly frozen using liquid nitrogen and kept at −80° C. for subsequent target gene analysis. Blood samples (0.8 mL) were collected for analysis of blood parameters.
Body weight of each mouse was monitored and measured daily at the same time throughout the experimentation. The difference in body weight between two consecutive days is defined as body weight gain. The food pellets for mice were weighed and put into the food container. Unconsumed pellets of high-fat diet were discarded each day and fresh pellets of high-fat diet were provided to ensure food quality throughout the experimentation. The high-fat food pellets were stored at 4° C.

hepatocytes of HFD mice = test: Histology of liver tissue (hepatocellular ballooning); type: in vivo; conditions: 4 weeks, grade 0 absence, 1 a few cells
Protocol: as §1
Small pieces of epididymal white adipose tissue and liver tissue were fixed with formalin (200 g/kg) neutral buffered solution and embedded in paraffin. Sections of 8 μm […] were cut and stained with hematoxylin and eosin. For microscopic examination, a microscope (Leica, DM2500) was used, and the images were taken using a Leica Digital Camera (DFC-425-C).
Based on previous report, the designation of histological hepatocellular ballooning findings include grade 0 for absence of degeneration, grade 1 for degeneration in a few cells, and […] for degeneration in many cells.

OCC1O[C@@H](O[C@@H]2Cc3c(O)cc(O)cc3O[C@@H]2c2ccc(O)c(O)c2)C(O)C(O)[C@@H]1O (single isomer, unassigned; (-)) [compound of formula I, (−)-epicatechin-3-O-β-D-allopyranoside]
Absolute tissue weight BAT ([1]; 10 mg/kg/day oral gavage): 0.168 ± 0.011 g
Absolute tissue weight EWAT ([1]; 10 mg/kg/day oral gavage): 0.906 ± 0.105^d g
Absolute tissue weight Liver ([1]; 10 mg/kg/day oral gavage): 0.899 ± 0.036 g
Absolute tissue weight MWAT ([1]; 10 mg/kg/day oral gavage): 0.293 ± 0.018 g
Absolute tissue weight RWAT ([1]; 10 mg/kg/day oral gavage): 0.280 ± 0.043^d g
Absolute tissue weight Skeletal muscle ([1]; 10 mg/kg/day oral gavage): 0.873 ± 0.060 g
Absolute tissue weight Visceral fat ([1]; 10 mg/kg/day oral gavage): 1.273 ± 0.147^d g
Body weight ([1]; 10 mg/kg/day oral gavage): 27.85 ± 1.04 g
Food intake ([1]; 10 mg/kg/day oral gavage): 2.08 ± 0.05 g/day/mouse
Weight gain ([1]; 10 mg/kg/day oral gavage): 0.40 ± 0.28 g
Absolute tissue weight BAT ([1]; 20 mg/kg/day oral gavage): 0.156 ± 0.017 g
Absolute tissue weight EWAT ([1]; 20 mg/kg/day oral gavage): 0.902 ± 0.084^d g
Absolute tissue weight Liver ([1]; 20 mg/kg/day oral gavage): 0.866 ± 0.036 g
Absolute tissue weight MWAT ([1]; 20 mg/kg/day oral gavage): 0.267 ± 0.021 g
Absolute tissue weight RWAT ([1]; 20 mg/kg/day oral gavage): 0.263 ± 0.034^f g
Absolute tissue weight Skeletal muscle ([1]; 20 mg/kg/day oral gavage): 0.813 ± 0.077 g
Absolute tissue weight Visceral fat ([1]; 20 mg/kg/day oral gavage): 1.199 ± 0.104^e g
Body weight ([1]; 20 mg/kg/day oral gavage): 27.88 ± 1.14 g
Food intake ([1]; 20 mg/kg/day oral gavage): 2.03 ± 0.03 g/day/mouse
Weight gain ([1]; 20 mg/kg/day oral gavage): 0.61 ± 0.43 g
Absolute tissue weight BAT ([1]; 40 mg/kg/day oral gavage): 0.144 ± 0.010 g
Absolute tissue weight EWAT ([1]; 40 mg/kg/day oral gavage): 0.936 ± 0.075^d g
Absolute tissue weight Liver ([1]; 40 mg/kg/day oral gavage): 0.848 ± 0.028 g
Absolute tissue weight MWAT ([1]; 40 mg/kg/day oral gavage): 0.236 ± 0.030 g
Absolute tissue weight RWAT ([1]; 40 mg/kg/day oral gavage): 0.233 ± 0.026^f g
Absolute tissue weight Skeletal muscle ([1]; 40 mg/kg/day oral gavage): 1.156 ± 0.102^d g
Absolute tissue weight Visceral fat ([1]; 40 mg/kg/day oral gavage): 1.198 ± 0.075^e g
Body weight ([1]; 40 mg/kg/day oral gavage): 27.15 ± 0.84 g
Food intake ([1]; 40 mg/kg/day oral gavage): 2.02 ± 0.03 g/day/mouse
Weight gain ([1]; 40 mg/kg/day oral gavage): −0.05 ± 0.11^d g
hepatocellular ballooning mean score (hepatocytes of HFD mice; 10 mg/kg/day oral gavage): 0.7±0.1
hepatocellular ballooning mean score (hepatocytes of HFD mice; 20 mg/kg/day oral gavage): 0.5±0.2
hepatocellular ballooning mean score (hepatocytes of HFD mice; 40 mg/kg/day oral gavage): 0.4±0.1
